Read-outs that look alike come from different tables or passages of the source.
Assays:
[1] = tested on: durch Kaolin induzierten Ödems der Rattenpfote; assay: Kaolin-induced rat paw oedema, substance applied to shorn back skin or given p.o.; assay type: in vivo, Ratte; details: for ED50: 5 h
Tachyphylaxie bei Ratten = assay: Tachyphylaxis (loss of oedema-inhibiting effect) after repeated dosing in rats; assay type: in vivo
[2] = tested on: emetische Erscheinungen beim Hund; details: dog, in vivo
Procedure: Die Vermeidung der Nebenwirkungen durch cutane Applikation von Verb. 1 ist nachfolgend beispielhaft für Verb. 1 beschrieben. • 1. Sowohl nach oraler als auch intramuskulärer Applikation von Verb. 1 treten bereits ab einer Dosis von etwa 0.1 mg/kg beim Hund starke emetische Erscheinungen auf. Diese emetische Wirkung beim Hund bleibt auch nach cutaner Applikation von 5 mg/kg der Substanz aus. • 2. Verb. […] Verb.

[3] = tested on: Carrageenan-Pfotenödems der Ratte; assay: Carrageenan rat paw oedema, preparations of TVX; assay type: in vivo
Source text: Aufbereitung von TVX - Hemmung des Carrageenan-Pfotenödems der Ratte

[4] = 0,3 mg/kg cutan, in Dimethylsulfoxid, rat, 5 h after oedema provocation
[5] = po, p.o., rat, read-out: DE50 (mg/kg) Kaolin-ödem p.o.

Compound: CCn1c(=O)c2cccnc2n(-c2cccc([N+](=O)[O-])c2)c1=O [Verb. 3, 1-(3-Nitrophenyl)-3-ethylpyridoL2.3-d/pyrimidin-2,4(1H, 3H)dion]
- % Hemmung des Kaolin-ödems [1, 4]: 79.8%
- ED50 [1, 5]: 0.1 mg/kg

Compound: CCn1c(=O)c2ccccc2n(-c2cccc([N+](=O)[O-])c2)c1=O [Verb. 1, 1-(3-Nitrophenyl)-3-ethylchinazolin-2.4(1H, 3H)-dion]
- ödemhemmende Wirkung nach topischer Vorbehandlung (Tachyphylaxie bei Ratten; 6 days topical pretreatment, in Dimethylsulfoxid, 0.3 mg/kg/Tag): eindeutige ödemhemmende Wirkung
- Wirkungsverlust (Tachyphylaxie) (Tachyphylaxie bei Ratten; cutaneous application): vollständig vermieden
- Tachyphylaxie (Tachyphylaxie bei Ratten; oral doses over several days, seen after three to four days): deutliche Tachyphylaxie
- Dosis, ab der emetische Wirkung auftritt [2]: > 5 mg/kg
- Dosis, ab der starke emetische Erscheinungen auftreten [2]: ~0.1 mg/kg
- % Hemmung ([3]; preparation: TVX 0.03, Aceton 6.97, IPM 3.00 (total 10.00)): 51.3%
- % Hemmung ([3]; preparation: TVX 0.03, Aceton 9.97 (total 10.00)): 41.7%
- % Hemmung ([3]; preparation: TVX 0.03, Essigsäureethylester 6.97, IPM 3.00 (total 10.00)): 64.1%
- % Hemmung ([3]; preparation: TVX 0.03, Essigsäureethylester 9.97 (total 10.00)): 31.0%
- % Hemmung ([3]; preparation: TVX 0.03, IPM 3.00, Tween 2.00, Isopropanol 4.97 (total 10.00)): 55.1%
- % Hemmung ([3]; preparation: TVX 0.03, Milchsäureethylester 6.97, IPM 3.00 (total 10.00)): 50.6%
- % Hemmung ([3]; preparation: TVX 0.03, Milchsäureethylester 9.97 (total 10.00)): 42.0%
- % Hemmung ([3]; preparation: TVX 0.03, Tween 0.50, Dowanol DPM 9.47 (total 10.00)): 62.7%
- % Hemmung des Kaolin-ödems ([1]; 0,3 mg/kg cutan, in Cremophor, rat, n = 5): 14.2%
- % Hemmung des Kaolin-ödems ([1]; 0,3 mg/kg cutan, in Dimethylacetamid, rat, n = 5): 50.5%
- % Hemmung des Kaolin-ödems ([1]; 0,3 mg/kg cutan, in Dimethylformamid, rat, n = 5): 35.0%
- % Hemmung des Kaolin-ödems [1, 4]: 48.3%
- % Hemmung des Kaolin-ödems ([1]; 0,3 mg/kg cutan, in Erdnußöl, rat, n = 5): 16.7%
- % Hemmung des Kaolin-ödems ([1]; 0,3 mg/kg cutan, in Lutrol, rat, n = 5): 18.3%
- % Hemmung des Kaolin-ödems ([1]; 0,3 mg/kg cutan, in N-Methylpyrrolidon, rat, n = 5): 63.2%
- % Hemmung des Kaolin-ödems ([1]; 0,3 mg/kg cutan, in Ricinusöl, rat, n = 5): 14.2%
- % Hemmung des Kaolin-ödems ([1]; 0,3 mg/kg cutan, in Salicylsäuremethylester, rat, n = 5): 77.1%
- ED50 ([1]; Rattus norvegicus, topical, cutan in Dimethylsulfoxid, same antiphlogistic effect as 0,3 mg/kg oral, read-out: DE50 nach cutaner Applikation in Dimethylsulfoxid): 0.3 mg/kg
- ED50 [1, 5]: 0.3 mg/kg

Compound: COC(=O)c1ccccc1O [Salicyclsäuremethylester, Salicylsäuremethylester, reference compound]
- % Hemmung des Kaolin-ödems ([1]; solvent alone (without Verb. 1), cutan, rat): 39.4) %

Compound: O=c1c2ccccc2n(-c2cccc([N+](=O)[O-])c2)c(=O)n1CCF [Verb. 2, 1-(3-Nitrophenyl)-3-(2-fluorethyl)-chinazolin-2,4(1H, 3H)dion]
- % Hemmung des Kaolin-ödems [1, 4]: 56.0%
- ED50 [1, 5]: 0.2 mg/kg

Source: EP0082385A1, “1-(3-Nitrophenyl)pyrido(2,3-d)pyrimidine-2,4(1H,3H) diones and 1-(3-nitrophenyl)quinazoline-2-4(1H,3H)diones as cutaneous medicaments” (Troponwerke GmbH & Co. KG, priority 1981, dated 1983)
